One assay has as its system McA cells. Briefly: VLDL-B100 secretion by McA cells (immuno slot blotting). Particulars: for effect on VLDL-B100 secretion: increasing concentrations; for increase in VLDL-B100 secretion over the no cpd984 control: 18 h, 1% BSA/DMEM, insulin sensitive McA cells. It counts as cell-based, rat. As to the method: McArdle RH-7777 cells (McA cells) were cultured as previously described in serum containing complete Dulbecco's Modified Eagle's Medium (cDMEM). To induce insulin sensitivity, McA cells at 50-60% confluency were incubated for 18 h in serum-free media containing DMEM containing 1% (w/v) BSA (1% BSA/DMEM). Human sortilin (hsortilin) (Ser78-Asn755) with C-terminal 6-His tag was from R&D Systems, Inc., (Minneapolis, Minn.). Plasma from fasted Sprague Dawley rats (BioreclamationIVT, Westbury, N.Y.) was used to prepare VLDL apo B standards. Mouse monoclonal antibody to rat B100 was prepared in our laboratory and characterized previously. Rabbit anti-sortilin antibody was from GeneTex (GTX54854, Irvine, Calif.) or from Abcam (ab16640, Cambridge, Mass.). Rabbit anti-p-AKT (9271), rabbit anti-AKT (9272), and rabbit anti-insulin receptor β-subunit (IRβ, 3025) were from Cell Signaling Technology (Danvers, Mass.). Mouse anti-pY Platinum 4G10 was from EMD Millipore (Temecula, Calif.). (Horseradish peroxidase linked donkey anti-rabbit IgG (NA9340), sheep anti-mouse IgG (NXA931) and ECL Prime Western Blotting Detection Reagent (RPN2232) were from GE Healthcare (Buckinghamshire, UK). All other materials and reagents were essentially as described previously. Compound 98,477,898 (25)-1-methyl-N-{3-[(3-phenylpropanoyl)-amino]phenyl}pyrrolidine-2-carboxamide (cpd984) was obtained from ChemBridge Corp. (San Diego, Calif.). A stock solution of cpd984 (10 mM) was prepared in DMSO, and stored in aliquots at −20° C.
Experimental media were adjusted to 1% (v/v) protease inhibitor cocktail I (EMD Millipore) and to a salt density of 1.019 g/ml by addition of a solution of NaBr (d=1.495 g/ml). VLDL was isolated by ultracentrifugation in a L-70 Ultracentrifuge (Beckman Coulter, Inc., Fullterton, Calif.) using a 50Ti rotor (200,000×g, 18 h, 14° C.). Following centrifugation, the top 1.5-2.0 ml VLDL fraction was removed using a syringe and weighed to determine volume. VLDL samples were applied in triplicate wells (0.2-0.4 ml per well) in a Bio-Dot® SF apparatus (Bio-Rad). Two PVDF membranes were used together for blotting: the top was Immobilon-P (IPVH09120 SF) and the bottom was Immobilin-PSQ (ISEQ09120 SF); both were obtained from EMD Millipore. VLDL apo B standards were prepared from rat plasma VLDL and total apo B (B100 and B48) and B100 content were determined on stained gels following SDS-PAGE separation. VLDL-apo B standards in TBS were slotted in duplicate alongside test samples. After filtration, 0.4 ml of TBS was added as a wash. […] At this stage slot blots were evaluated similarly to immunoblotting. After chemiluminescence development and B100 quantitation, slot blots were stripped by incubation in Restore™ PLUS for 15 min at room temperature (Thermo Scientific, Rockford, Ill.) and were reblocked overnight at 4° C. Total apo B (B100 and B48) present in VLDL was then evaluated following incubation with rabbit polyclonal anti-rat apo B. The bottom PVDF membrane was carried through the entire procedure to assure there was no “bleed through” of test samples. VLDL-apo B and VLDL-B100 content were calculated from standard curves generated by VLDL apo B standards. […]
McArdle rat hepatocytes were incubated with increasing concentrations of cpd984 or cpd541 for 14-18 h and media were collected. […] Binding was detected by chemiluminescence detection and quantified using Bio-Rad software. […]

For another assay, the target named is T1, hsortilin (Homo sapiens, UniProt Q99523).
T1 construct: Human sortilin (hsortilin) (Ser78-Asn755) with C-terminal 6-His tag; purchased R&D Systems, Inc. (Minneapolis, Minn.)
T1 sequence (Q99523 78-755): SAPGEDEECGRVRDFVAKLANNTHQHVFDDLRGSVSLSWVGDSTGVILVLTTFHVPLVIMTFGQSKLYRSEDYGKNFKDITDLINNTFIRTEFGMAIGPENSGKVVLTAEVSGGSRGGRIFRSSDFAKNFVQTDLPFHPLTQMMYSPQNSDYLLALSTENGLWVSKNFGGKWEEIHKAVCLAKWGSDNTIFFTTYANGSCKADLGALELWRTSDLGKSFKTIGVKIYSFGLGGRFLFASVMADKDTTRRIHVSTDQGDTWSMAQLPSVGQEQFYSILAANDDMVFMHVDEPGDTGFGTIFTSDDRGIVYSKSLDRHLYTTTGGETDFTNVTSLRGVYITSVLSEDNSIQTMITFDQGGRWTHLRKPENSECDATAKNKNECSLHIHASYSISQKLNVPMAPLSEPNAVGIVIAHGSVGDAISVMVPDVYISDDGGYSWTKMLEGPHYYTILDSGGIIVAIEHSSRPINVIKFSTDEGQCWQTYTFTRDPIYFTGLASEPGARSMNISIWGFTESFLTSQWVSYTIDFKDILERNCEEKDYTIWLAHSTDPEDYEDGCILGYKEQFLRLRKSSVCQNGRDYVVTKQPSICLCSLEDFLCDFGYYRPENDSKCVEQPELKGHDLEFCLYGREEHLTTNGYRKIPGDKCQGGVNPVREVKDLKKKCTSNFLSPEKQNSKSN
Briefly: Surface plasmon resonance on hsortilin immobilized on CM7 chips (Example 2). It counts as binding. How it is done:
Surface plasmon resonance (SPR) measurements were performed on a Biacore T200 instrument equipped with two separate CM7 sensor chips, one with about 20,000 response units (RU) and another with about 27,000 RU of hsortilin covalently immobilized. […] For all other SPR injections, regeneration consisted of injections of running buffer alone. GE BIAcore T200 evaluation software version 3.0 (BIAevaluate) was used to analyze and export results. […] PIP3 containing nanodiscs were flowed at 2:1 dilutions to obtain kinetic data fitted using about 27,000 RU CM7 surface. Kinetic fit generated with BIAevaluate and local Rmax using Langmuir 1:1 binding model exported from BIAevaluate to Microsoft Excel 2016 with fit indicated by the black line.

Turning to `CC(NC(=O)c1ccccc1NCC(=O)O)c1ccccc1` (centres unmarked) [cpd541], in the assay on McA cells (14-18 h), the “effect on VLDL-B100 secretion” value was “decreases VLDL-B100 secretion”. Moreover, on hsortilin, the “effect on NT binding to hsortilin by SPR” value was “competes for NT binding”.

With `CN1CCC[C@H]1C(=O)Nc1cccc(NC(=O)CCc2ccccc2)c1` [cpd984, (2S)-1-methyl-N-{3-[(3-phenylpropanoyl)-amino]phenyl} pyrrolidine-2-carboxamide], the “increase in VLDL-B100 secretion over the no cpd984 control” value with McA cells (10 μM) is given as 30%. The “increase in VLDL-B100 secretion over the no cpd984 control” value in the assay with McA cells (25 μM) turned out to be 61%. In addition, the “effect of 984 on VLDL-B100 and VLDL-apoE secretion when given in combination with 541” value in the assay on McA cells (combination of both compounds, 0.1-25 μM, 14-18 h) was “abrogated”. The “effect on VLDL-B100 secretion” value with McA cells (14-18 h) is “increases VLDL-B100 secretion”. In addition, at hsortilin, the “effect on NT binding to hsortilin by SPR” value is “enhances NT binding” and the “increase of binding of C-term NT (SITE 1) to hsortilin when incubated with 984” value is on record as 100 fold.

The values above are taken from US10478421B1, “Sortilin binding compounds, formulations, and uses thereof” (University of Florida, priority 2016, dated 2019).
